Reference: article PMC6389625, “The Impact and Mechanism of a Novel Allosteric AMPA Receptor Modulator LCX001 on Protection Against Respiratory Depression in Rodents” (Frontiers in Pharmacology, 2019)

How the values were obtained:
male KM mice = assay: Acetic acid writhing test; format: in vivo, mouse; conditions: for inhibition of acetic acid-induced writhing: 10 min before 0.6% acetic acid
female KM mice = assay: Hot-plate test; format: in vivo, mouse
AMPA receptors = assay: [3H]AMPA binding to brainstem membranes; parameters: species or system rat; conditions: for specific [3H]AMPA binding: 200 nM [3H]AMPA
Protocol: Adult male SD rats (220–250 g) were euthanized by decapitation. The brainstems were dissected and homogenized for 2 min in 15 volumes of ice-cold 50 mM Tris–HCl buffer (pH 7.4) at 4°C. The homogenates were centrifuged at 1,000 g for 10 min, and the supernatants were collected and centrifuged at 40,000 g for 20 min. The pellets were dispersed in 50 mM Tris-HCl pH 7.4 and centrifuged at 40,000 g for 20 min. The last procedures were repeated a third time with a total of four washes to eliminate endogenous glutamate from the tissue. The resulting pellets were suspended in eight volumes of 0.3 M sucrose, then stored at –70°C until use. […] The binding reaction was performed in disposable glass culture tubes at 25°C for 60 min. […] The pellets were washed with ice-cold Tris-HCl pH 7.4 three times and dried with a piece of tissue paper. […] The binding activity on the filters was detected using a LS6500 scintillation counter (Beckman, Shanghai, China). […] Data are presented as the mean ± standard error of the mean (SEM). In the acetic acid writhing and hot-plate tests, experiments were performed blind. Compounds were injected by one researcher and the behavior or data was recorded by another researcher. The significance of change in respiratory parameters was evaluated by repeated measures two-way ANOVA (dose × time) followed by Bonferroni post-hoc tests for comparisons between groups. In the analysis of the acetic acid writhing test, hot-plate test and [^3H]AMPA binding assay, statistical evaluation between the treated groups and control group was performed by one-way ANOVA followed by Dunnett’s test. For saturation binding with [^3H]AMPA, Kd and Bmax values of different groups were obtained from fits to saturation binding curves with the KaleidaGraph programme. For whole-cell patch-clamp recordings, dose-response curves were fitted to the Hill equation using Origin 9.0 software (Originlab, MA, United States) and statistical significance was determined by one-way ANOVA followed by Dunnett’s test. For live cell imaging, two-way ANOVA followed by Bonferroni post-hoc tests was used to compare the treated groups and vehicle group.

[1] = target: T1, recombinant homomeric GluA2(R)flop receptor (Rattus norvegicus, UniProt P19491, Q607R); assay: Whole-cell patch-clamp recording of glutamate-evoked currents in HEK293 cells; format: cell-based
T1 construct: rat AMPA-GluA2(R)flop cDNA corresponding to the entire coding region; expressed in transfected cells
Protocol: A wild-type rat AMPA-GluA2(R)flop cDNA corresponding to the entire coding region was generated and cloned into the pcDNA^TM3.1(+) vector (Invitrogen, China, Catalog no. V790-20) by Sangon Biotech Co., Ltd. (Shanghai, China). […] For stable transfection, HEK293 cells (3 × 10^4 cells/well) were seeded in 24-well plates the day before transfection. The cells were grown to 70–90% confluency, and the transfection was performed by adding 1 μg of GluA2 expressing vector per well. Twenty-four hours after transfection, the normal medium was replaced with DMEM/F12 (Gibco, Shanghai, China) growth medium supplemented with 1.0 mg/ml G418 (Gibco, Shanghai, China) and cultured for 7 days. The surviving cells were pelleted and dispersed (100 cells/20 ml), and then seeded into 96-well plates in DMEM/F12 medium containing 500 μg/ml G418. Discrete colonies were picked after 15 days of selection. Western blotting and whole-cell patch-clamp recording were performed to test expression of the AMPA receptor GluA2 subunit and formation of an AMPA-GluA2 ion channel. G418 was kept at 500 μg/ml for the maintenance of stably transfected clones.
HEK293 cells that stably expressed AMPA-GluA2 receptors were seeded into the recording chamber 2 days before patch-clamp recordings, and the experiments were conducted in whole-cell configuration. Thin-walled borosilicate glass (Sutter Instrument, CA, United States) was pulled to make patch pipettes. […] The holding potential was set as -80 mV by an Axopatch-700B amplifier (Axon Instruments, CA, United States), and pClamp8 software (Axon Instruments, CA, United States) was used for data acquisition. Currents were recorded and digitized at 10 kHz. […] LCX001 and CX614 were dissolved in dimethyl sulfoxide (DMSO) before dilution with external bath solution (DMSO final concentration 0.5%). Dose-response curves were fitted to the Hill equation using Origin 9.0 software.

SEP-GluA1 = assay: Live cell imaging of SEP-GluA1 surface expression in primary medulla oblongata neurons; format: cell-based, rat; conditions: 47 μM final, added at 2 min; P > 0.05
SEP-GluA2(R) = target: T2, SEP-GluA2(R) (Rattus norvegicus, UniProt P19491, Q607R); assay: Live cell imaging of SEP-GluA2(R) surface expression in primary medulla oblongata neurons; format: cell-based; conditions: 47 μM final, added at 2 min
T2 construct: adenovirus by Hanbio biotechnology plasmid #24001; host or cells: primary medulla oblongata neurons of neonatal SD rats

[2] = tested on: intracellular calcium concentration ([Ca^2+]i) of cultured medullary neurons; assay: Ca2+ imaging (Fluo-4 NW) in primary medulla oblongata neurons; format: cell-based, rat; conditions: 40 μM final at 7 min, after glutamate 18 μM and fentanyl or TH-030418 42 μM
rodents = assay: Observation of over-excitability after administration; format: in vivo; conditions: up to 60 mg/kg
[3] = tested on: unanaesthetised adult male SD rats
rat dentate gyrus = tested on: rat dentate gyrus; parameters: method as in Street et al., 2008; Mueller and Street, 2012; conditions: ref Street et al., 2008, Mueller and Street, 2012; cited from earlier work

T1 sequence (P19491 22-883 Q607R): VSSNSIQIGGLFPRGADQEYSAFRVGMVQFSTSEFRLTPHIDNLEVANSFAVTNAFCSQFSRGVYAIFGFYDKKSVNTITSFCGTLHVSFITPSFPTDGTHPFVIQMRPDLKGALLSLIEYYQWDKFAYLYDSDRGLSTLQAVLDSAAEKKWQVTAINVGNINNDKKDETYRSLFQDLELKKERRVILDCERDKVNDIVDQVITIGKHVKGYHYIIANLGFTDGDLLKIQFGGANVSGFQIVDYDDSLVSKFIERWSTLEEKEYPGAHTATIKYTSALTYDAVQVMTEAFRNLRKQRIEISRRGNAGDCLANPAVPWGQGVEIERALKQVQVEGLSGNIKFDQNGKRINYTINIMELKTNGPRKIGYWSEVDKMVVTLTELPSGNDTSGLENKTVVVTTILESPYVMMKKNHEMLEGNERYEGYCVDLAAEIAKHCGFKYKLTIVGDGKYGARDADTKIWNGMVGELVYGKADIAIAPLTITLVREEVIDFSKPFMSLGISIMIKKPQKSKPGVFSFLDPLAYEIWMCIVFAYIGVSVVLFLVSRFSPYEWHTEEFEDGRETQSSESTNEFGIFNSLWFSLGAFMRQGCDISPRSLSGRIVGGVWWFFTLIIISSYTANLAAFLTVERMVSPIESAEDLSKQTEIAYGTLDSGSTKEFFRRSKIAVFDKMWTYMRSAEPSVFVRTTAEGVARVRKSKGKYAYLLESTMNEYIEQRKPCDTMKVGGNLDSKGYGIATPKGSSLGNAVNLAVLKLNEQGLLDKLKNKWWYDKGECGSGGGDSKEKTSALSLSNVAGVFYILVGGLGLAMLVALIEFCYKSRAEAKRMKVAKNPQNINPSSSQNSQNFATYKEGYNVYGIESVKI
T2 sequence (P19491 22-883 Q607R): as above

## CN(C(=O)c1ccc2nonc2c1)[C@H]1CC[C@H](O)CC1 [LCX001, N-((1r,4r)-4-hydroxycyclohexyl)-N-methylbenzo[c][1,2,5]oxadiazole-5-carboxamid]
Male KM mice; 1.5 mg/kg i.v.
  inhibition of acetic acid-induced writhing: 30.76 ± 12.75%
Male KM mice; 3 mg/kg i.v.
  inhibition of acetic acid-induced writhing: 41.43 ± 11.32%
Male KM mice; 6 mg/kg i.v.
  inhibition of acetic acid-induced writhing: 85.35 ± 9.53%
Male KM mice; 12 mg/kg i.v.
  inhibition of acetic acid-induced writhing: 94.78 ± 2.74%
Male KM mice; LCX001 12 mg/kg i.v. 10 min before morphine 2.5 mg/kg s.c., P > 0.05
  impact on the analgesic effect of morphine (writhing test): no impact
Female KM mice; 1.5 mg/kg i.v., 10 min after administration, P > 0.05
  %MPE compared with vehicle: no effect
Female KM mice; 3 mg/kg i.v., 10 min after administration, P > 0.05
  %MPE compared with vehicle: no effect
Female KM mice; 6 mg/kg i.v., 10 min after administration
  %MPE: 30.18 ± 10.56%
Female KM mice; 12 mg/kg i.v., 10 min after administration
  %MPE: 65.27 ± 12.22%
Female KM mice; LCX001 12 mg/kg i.v. 10 min before morphine 10 mg/kg s.c., P > 0.05
  impact on the analgesic effect of morphine (hot-plate test): no impact
AMPA receptors; LCX001 10^-4 M, control 1595 ± 30
  specific [3H]AMPA binding: 2095 ± 87 cpm/mg protein
AMPA receptors; LCX001 10^-4 M, without LCX001 6.89 ± 0.11
  Bmax of [3H]AMPA after pre-incubation with LCX001: 7.77 ± 0.17 pmol/mg of protein
AMPA receptors; LCX001 10^-5 M, control 1595 ± 30
  specific [3H]AMPA binding: 1964 ± 27 cpm/mg protein
AMPA receptors; LCX001 10^-6 M, control 1595 ± 30
  specific [3H]AMPA binding: 1857 ± 20 cpm/mg protein
AMPA receptors; LCX001 10^-9–10^-7 M, control 1595 ± 30 cpm/mg protein
  specific [3H]AMPA binding: unchanged
[1]; 100 μM modulator
  nH of glutamate concentration-response curve in the presence of modulator: 0.84
[1]; 3.5 mM glutamate, 100 μM modulator, control 432 ± 27 pA
  glutamate evoked peak amplitude: 711 ± 20 pA
[1]; 10 mM glutamate, 100 μM modulator, control 752 ± 35 pA
  glutamate evoked peak amplitude: 1120 ± 60 pA
[1]; in the absence of glutamate
  current induced by compound alone: no current
SEP-GluA1
  SEP-GluA1 fluorescence intensity: no impact
SEP-GluA2(R)
  SEP-GluA2 fluorescence intensity: significant and fast increase
[2]
  effect on the increased level of [Ca^2+]i in response to fentanyl and TH-030418: significantly blocked
rodents
  over-excitability after administration: no evidence of over-excitability
[3]; LCX001 10 mg/kg i.v. 5 min after Nembutal 80 mg/kg i.p., P < 0.05
  effect on Nembutal-induced respiratory depression: ameliorated respiratory depression
[3]; LCX001 10 mg/kg i.v. 5 min after TH-030418 20 μg/kg i.v., P < 0.05
  effect on TH-030418-induced respiratory depression: alleviated the reduction of respiratory parameters
[3]; LCX001 10 mg/kg i.v. 5 min after fentanyl 120 μg/kg s.c., P < 0.05
  effect on fentanyl-induced respiratory depression (respiratory frequency, minute ventilation): effectively countered the inhibition of respiratory frequency and minute ventilation
[3]; LCX001 10 mg/kg i.v. 10 min before propofol 30 mg/kg i.v., P < 0.05
  effect on propofol-induced respiratory depression: reversed the acute reduction of respiratory frequency and minute ventilation
Rat dentate gyrus
  increase in the amplitude of synaptic currents: 21%

## CCCC(C)C1(CC)C(=O)NC(=O)NC1=O (stereo not shown) [Nembutal, reference compound]
[3]; male, SD, rat, in vivo
  respiratory frequency: 70.3 ± 2.7 % of control

## Cc1o[nH]c(=O)c1CC(N)C(=O)O (stereo not shown) [[^3H]AMPA, reference compound]
AMPA receptors; without LCX001, one-site model
  Bmax of [3H]AMPA saturation binding: 6.89 ± 0.11 pmol/mg of protein
AMPA receptors; without LCX001, one-site model, read-out: Kd of [3H]AMPA saturation binding
  Kd: 171 ± 5 nM

## CN1CC[C@]23c4c5ccc(O)c4O[C@H]2[C@@H](O)C=C[C@H]3[C@H]1C5 [morphine, reference compound]
Female KM mice; 10 mg/kg s.c., 30 min after injection, 55°C
  %MPE: about 100%

## CC(C)c1cccc(C(C)C)c1O [propofol, reference compound]
[3]; male, SD, rat, in vivo
  duration of propofol-mediated respiratory depression: 15 to 25 min
  respiratory frequency: 53.6 ± 5.8 % of control
